Measurements as given in ChEMBL document CHEMBL1157225, “Highly N-methylated linear peptides produced by an atypical sponge-derived Acremonium sp” (2006).
≈ marks a conversion by molar mass, not a printed value. Where a SMILES comes first, the peptide text is derived from it. [ ]: non-standard residue; d: D form. The star is where a group is joined. X1 = CC(C)C[C@@H](C[N+]1=C2CCCN2CCC1)N*; Pip = O=C(O)[C@@H]1CCCCN1; Iva = CC[C@](C)(N)C(=O)O; Aib = CC(C)(N)C(=O)O; βAla = NCCC(=O)O

Assays:
[1] = tested on: Staphylococcus epidermidis; assay: Antimicrobial activity against Staphylococcus epidermidis; type: functional
L1210 = assay: Cytotoxicity against mouse L1210 cells relative to efrapeptin G; type: functional
[2] = Staphylococcus epidermidis, read-out: MIC

Structure (SMILES) | MIC [1, 2] [µg/mL] | Activity (L1210) | MIC [1] [µg/mL]
CC[C@](C)(NC(=O)[C@H](CC(C)C)NC(=O)[C@H](C)NC(=O)C(C)(C)NC(=O)[C@@H]1CCCCN1C(=O)C(C)(C)NC(=O)C(C)(C)NC(=O)CNC(=O)CCNC(=O)[C@H](CC(C)C)NC(=O)C(C)(C)NC(=O)[C@](C)(CC)NC(=O)[C@@H]1CCCCN1C(=O)C(C)(C)NC(=O)[C@@H]1CCCCN1C(C)=O)C(=O)N[C@@H](CC(C)C)C[N+]1=C2CCCN2CCC1 [EFRAPEPTIN G] (Ac-[Pip][Aib][Pip][Iva][Aib]L[βAla]G[Aib][Aib][Pip][Aib]AL[Iva]-X1) | 80 | 3300 | 
CC[C@H](C)[C@H](NC(=O)[C@H](CC(C)C)N(C)C(=O)[C@@H](NC(=O)[C@@H](CCC(N)=O)NC(C)=O)[C@@H](C)CC)C(=O)N(C)[C@H](C(=O)N(C)[C@H](C(=O)N(C)[C@H](C(=O)N(C)[C@H](C(=O)O)[C@@H](C)CC)[C@@H](C)CC)[C@@H](C)CC)C(C)C | 25 (≈ 24.1 µM) |  | 50 (≈ 48.2 µM)
CC[C@H](C)[C@H](NC(=O)[C@H](C(C)C)N(C)C(=O)[C@H](CC(C)C)N(C)C(=O)[C@@H](NC(=O)[C@@H](CCC(N)=O)NC(C)=O)C(C)C)C(=O)N(C)[C@H](C(=O)N(C)[C@H](C(=O)N(C)[C@H](C(=O)O)[C@@H](C)CC)[C@@H](C)CC)[C@@H](C)CC | > 400 | 1 | 
CN[C@H](CC(C)C)C(=O)N[C@H]1C(=O)N[C@@H](CC(N)=O)C(=O)N[C@H]2C(=O)N[C@H]3C(=O)N[C@H](C(=O)N[C@H](C(=O)O)c4cc(O)cc(O)c4-c4cc3ccc4O)[C@H](O)c3ccc(c(Cl)c3)Oc3cc2cc(c3O[C@@H]2O[C@H](CO)[C@@H](O)[C@H](O)[C@H]2O[C@H]2C[C@](C)(N)[C@H](O)[C@H](C)O2)Oc2ccc(cc2Cl)[C@H]1O [VANCOMYCIN] | 0.63 (≈ 0.435 µM) |  | 
